Converted amounts (≈) assume the structure as drawn.
How the values were obtained:
[1] = test system: Aspergillus flavus, Fusarium oxysporum, Ustilago zeae and the like; experiment: agar plate inhibition zone test against filamentous fungi; format: cell-based; settings: agar plates, methanol solutions, 28° C. or 37° C., 24 hours
Procedure: The compound is also useful for inhibiting the growth of filamentous fungi. Such use may be illustrated in the following tests with Aspergillus flavus, Fusarium oxysporum, Ustilago zeae and the like. Inocula for filamentous fungi are prepared by scraping the surface of stock plates maintained on potato dextrose agar with a moistened sterile dacron swab. The spores and mycelia are then suspended in 10 milliliters of sterile potato dextrose broth and adjusted to 70 percent transmission at 660 nm. The samples to be tested for production of antifungal agent are applied directly to the agar plates as methanol solutions. When the sample to be tested is crude broth, it may be centrifuged prior to application. The assay plates are then incubated at either 28° C. or 37° C. for 24 hours. Following incubation, the inhibition zones are measured. Effects on growth are also noted as to appearance.

[2] = test system: panel of fungi; experiment: broth microdilution assay, comparison with amphotericin B; format: cell-based; settings: MIC and MFC
Procedure: In the microbroth dilution assay, microorganisms were selected by streaking a yeast culture on Sabouraud dextrose agar (SDA) and incubating for 24-48 hours at 35°-37° C. Three to five characteristic colonies were selected and transferred to a fresh plate and incubated under similar conditions. From the regrowth, 3 to 5 colonies were selected and suspended in 10 milliliters of YM broth (Difco) and incubated for 4 hours at 35°-37° C. shaking at 225 rpm. The 4 hour broth cultures were adjusted optically to 86% transmission resulting in a concentration of 1-5×10^6 cfu/ml which was further diluted 1:100 in YNBD (yeast nitrogen base with 1% dextrose) to obtain a concentration of 1-5×10^4 cfu/ml for use as inocula. […]
The plates containing the diluted compounds were then inoculated with 75 μl/well of the appropriate microorganism and incubated for 48 hours at 35°-37° C. with MIC (minimum inhibitory concentration) determinations carried out after 24 hours of incubation (except Cryptococcus strains which are read at 48 hours). […]
After recording MICs at 24 hours, the microtiter plates were shaken gently to resuspend the cells. […] For Cryptococcus neoformans, SDA plates were inoculated at 48 hours after recording MICs and incubated 48 hours before reading the MFC. […]

[3] = test system: Aspergillus fumigatus (MY5668); experiment: broth microdilution assay (MIC/MEC); format: cell-based; settings: 24 hours
Procedure: (§1) In the microbroth dilution assay, microorganisms were selected by streaking a yeast culture on Sabouraud dextrose agar (SDA) and incubating for 24-48 hours at 35°-37° C. Three to five characteristic colonies were selected and transferred to a fresh plate and incubated under similar conditions. From the regrowth, 3 to 5 colonies were selected and suspended in 10 milliliters of YM broth (Difco) and incubated for 4 hours at 35°-37° C. shaking at 225 rpm. The 4 hour broth cultures were adjusted optically to 86% transmission resulting in a concentration of 1-5×10^6 cfu/ml which was further diluted 1:100 in YNBD (yeast nitrogen base with 1% dextrose) to obtain a concentration of 1-5×10^4 cfu/ml for use as inocula.
(§2) The test compound was dissolved at […] in 10% DMSO and diluted 2× into the first well to achieve a concentration of 256 μg/ml at 5% DMSO in the first well. Compounds are subsequently serially diluted 2× and cell suspension is added to each well resulting in an additional 2× dilution of compound. 75 μl of said solution is delivered to each well in column 1 of a 96-well, U-bottomed plate. The compounds in column 1 were then serially diluted two-fold to yield concentrations from 128 μg/ml to 0.03 μg/ml.
(§3) The plates containing the diluted compounds were then inoculated with 75 μl/well of the appropriate microorganism and incubated for 48 hours at 35°-37° C. with MIC (minimum inhibitory concentration) determinations carried out after 24 hours of incubation (except Cryptococcus strains which are read at 48 hours). Growth and sterility controls for each organism and sterility checks for the compounds also were carried out.
(§4) No MFC values are indicated for Aspergillus fumigatus since colony counts are unreliable with filamentous species. Instead, a Minimum Effective Concentration (MEC) is reported. The MEC is defined as the lowest concentration of drug which effects a severe morphological change in the cells. The MEC is scored macroscopically by direct observation of the plate wells after 24 hours and reflects microscopic alterations in cell morphology (Kurtz et al, AAC 1994 38:1480-1489).

[4] = test system: Aspergillus fumigatus (MY4839); experiment: broth microdilution assay (MIC/MEC); format: cell-based; settings: 24 hours
Procedure: as §1, §2, §3, §4

[5] = test system: Cryptococcus neoformans (MY2061); experiment: broth microdilution assay (MIC/MFC); format: cell-based
Procedure: as §1, §2, §3
(§5) After recording MICs at 24 hours, the microtiter plates were shaken gently to resuspend the cells. A 1.5 μl sample was transferred from each well of the 96-well plate to a single reservoir inoculum plate containing SDA. The inoculated SDA and corresponding microtiter plates were incubated for 24 hours at 35°-37° C. For Cryptococcus neoformans, SDA plates were inoculated at 48 hours after recording MICs and incubated 48 hours before reading the MFC. MFC is the lowest concentration of compound at which either no growth or growth of <4 colonies occur.

[6] = test system: Candida albicans (CA2); experiment: broth microdilution assay (MIC/MFC); format: cell-based; settings: 24 hours, 35°-37° C.
Procedure: as §1, §2, §3, §5

[7] = test system: Candida glabrata (MY1381); experiment: broth microdilution assay (MIC/MFC); format: cell-based; settings: Nakaseomyces glabratus, 24 hours, 35°-37° C.
Procedure: as §1, §2, §3, §5

[8] = test system: Candida albicans (MY1055); experiment: broth microdilution assay (MIC/MFC); format: cell-based; settings: 24 hours, 35°-37° C.
Procedure: as §1, §2, §3, §5

[9] = test system: Candida tropicalis (MY1124); experiment: broth microdilution assay (MIC/MFC); format: cell-based; settings: 24 hours, 35°-37° C.
Procedure: as §1, §2, §3, §5

[10] = test system: Candida krusei; experiment: broth microdilution assay (MIC/MFC); format: cell-based; settings: Pichia kudriavzevii, 24 hours, 35°-37° C.
Procedure: as §1, §2, §3, §5

[11] = test system: Cryptococcus neoformans (MY2062); experiment: broth microdilution assay (MIC/MFC); format: cell-based
Procedure: as §1, §2, §3, §5

[12] = test system: Candida pseudotropicalis (MY2099); experiment: broth microdilution assay (MIC/MFC); format: cell-based; settings: Kluyveromyces marxianus, 24 hours, 35°-37° C.
Procedure: as §1, §2, §3, §5

[13] = test system: Candida tropicalis (MY1012); experiment: broth microdilution assay (MIC/MFC); format: cell-based; settings: 24 hours, 35°-37° C.
Procedure: as §1, §2, §3, §5

[14] = test system: Candida albicans (CLY539); experiment: broth microdilution assay (MIC/MFC); format: cell-based; settings: 24 hours, 35°-37° C.
Procedure: as §1, §2, §3, §5

[15] = test system: Saccharomyces cerevisiae (MY2140); experiment: broth microdilution assay (MIC/MFC); format: cell-based; settings: 24 hours, 35°-37° C.
Procedure: as §1, §2, §3, §5

[16] = test system: Candida guillermondii (MY1019); experiment: broth microdilution assay (MIC/MFC); format: cell-based; settings: 24 hours, 35°-37° C.
Procedure: as §1, §2, §3, §5

[17] = test system: Candida parapsilosis (MY1010); experiment: broth microdilution assay (MIC/MFC); format: cell-based; settings: Lodderomyces parapsilosis, 24 hours, 35°-37° C.
Procedure: as §1, §2, §3, §5

[18] = interconversion of the two diastereomers; format: physicochemical; settings: normal temperatures
[19] = 35°-37° C., read-out: MIC (minimum inhibitory concentration)
[20] = lowest concentration effecting severe morphological change, read-out: MEC (Minimum Effective Concentration)
[21] = SDA inoculated at 48 hours, incubated 48 hours, no growth or <4 colonies, read-out: MFC (minimum fungicidal concentration)
[22] = read at 48 hours, 35°-37° C., read-out: MIC (minimum inhibitory concentration)
[23] = read-out: MIC (minimum inhibitory concentration)
[24] = SDA, no growth or <4 colonies, read-out: MFC (minimum fungicidal concentration)

SMILES: CC(=O)OC1CC23C4=CCC5(C)C(C(=O)O)C(C)(C(C)C(C)C)CCC5(C)C4CCC2C(C)(COC3O)C1OC1OC(CO)C(O)C(O)C1O (stereo not drawn) [Compound I]
- inhibition of growth of filamentous fungi [1]: effectively inhibit growth of the fungal organisms
- effectiveness against a panel of fungi, compared with amphotericin B [2]: at concentrations comparable to an established antifungal agent, amphotericin B
- MIC [3, 19]: 32 µg/mL (≈ 45.1 µM)
- minimal effective concentration [3, 20]: 0.031 µg/mL
- MIC [4, 19]: 64 µg/mL (≈ 90.3 µM)
- minimal effective concentration [4, 20]: 0.031 µg/mL
- MFC [5, 21]: 32 µg/mL (≈ 45.1 µM)
- MIC [5, 22]: 32 µg/mL (≈ 45.1 µM)
- MIC [6, 23]: > 128 µg/mL
- MFC [6, 24]: > 128 µg/mL
- MIC [7, 23]: 1 µg/mL (≈ 1.41 µM)
- MFC [7, 24]: 0.5 µg/mL (≈ 0.705 µM)
- MIC [8, 23]: 0.5 µg/mL (≈ 0.705 µM)
- MFC [8, 24]: 0.25 µg/mL (≈ 0.353 µM)
- MIC [9, 23]: 16 µg/mL (≈ 22.6 µM)
- MFC [9, 24]: 16 µg/mL (≈ 22.6 µM)
- MIC [10, 23]: 4 µg/mL (≈ 5.64 µM)
- MFC [10, 24]: 1 µg/mL (≈ 1.41 µM)
- MFC [11, 21]: 128 µg/mL (≈ 181 µM)
- MIC [11, 22]: 32 µg/mL (≈ 45.1 µM)
- MIC [12, 23]: 0.5 µg/mL (≈ 0.705 µM)
- MFC [12, 24]: 1 µg/mL (≈ 1.41 µM)
- MIC [13, 23]: 1 µg/mL (≈ 1.41 µM)
- MFC [13, 24]: 1 µg/mL (≈ 1.41 µM)
- MIC [14, 23]: 0.5 µg/mL (≈ 0.705 µM)
- MFC [14, 24]: 0.5 µg/mL (≈ 0.705 µM)
- MIC [15, 23]: 2 µg/mL (≈ 2.82 µM)
- MFC [15, 24]: 2 µg/mL (≈ 2.82 µM)
- MIC [16, 23]: 1 µg/mL (≈ 1.41 µM)
- MFC [16, 24]: 2 µg/mL (≈ 2.82 µM)
- MIC [17, 23]: 0.25 µg/mL (≈ 0.353 µM)
- MFC [17, 24]: 0.25 µg/mL (≈ 0.353 µM)
- reequilibration of separated diastereomers [18]: reequilibrate at normal temperatures
